Structures are written as SMILES.

As a reminder, the IC50 is the concentration at which inhibition is half-maximal.

One experiment concerns the target T1, Tn5 transposase (Escherichia coli, UniProt Q46731, E54K/L372P/M56A).
T1 construct: made in house
Experiment: not given
The experiment is classed as binding. To be noted: read-out: IC50, inhibition of Tn5 transposase-DNA complex assembly; gel shift assays, inhibitor titration.
As for `O=C(NC(=S)Nc1cc([N+](=O)[O-])cc(Cl)c1O)c1ccccc1` [aromatic thiourea], the IC50 came out at 24 µM.

A further experiment deals with T2, Tn5 transposase (EK54, MA56 and LP372 hyperactive mutant version) (Escherichia coli, UniProt Q46731, E54K/L372P/M56A).
T2 construct: made in house
T2 sequence (Q46731 1-476 E54K/M56A/L372P): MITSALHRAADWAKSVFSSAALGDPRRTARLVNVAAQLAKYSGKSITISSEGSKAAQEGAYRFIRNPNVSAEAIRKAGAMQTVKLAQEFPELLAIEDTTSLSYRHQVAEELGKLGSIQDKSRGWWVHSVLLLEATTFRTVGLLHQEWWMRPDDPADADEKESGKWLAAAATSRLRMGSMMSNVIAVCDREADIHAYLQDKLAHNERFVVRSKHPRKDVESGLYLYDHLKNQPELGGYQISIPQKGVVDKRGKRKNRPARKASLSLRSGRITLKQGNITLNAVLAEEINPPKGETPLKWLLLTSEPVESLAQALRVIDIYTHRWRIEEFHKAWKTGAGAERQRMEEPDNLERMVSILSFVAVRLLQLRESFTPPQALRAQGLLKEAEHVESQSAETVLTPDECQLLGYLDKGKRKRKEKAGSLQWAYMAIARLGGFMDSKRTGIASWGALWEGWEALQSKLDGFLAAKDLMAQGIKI
Nature of the experiment: Inhibition of Tn5 transposase-DNA complex assembly (synapsis), gel shift assay. The note with it: 800 nM transposase, 160 nM dsDNA, 60 bp DNA, fit to exponential decay, ± SD from fit, at least two, typically three experiments. It counts as binding, prokaryotic (Tn5 transposon, IS4 family). The procedure: The data in this graph were obtained from multiple experiments. Each data point represents at least two, typically three, independent experiments. Error is represented as the standard deviation (SD) from the fit of the data to the equation used to calculate the IC50. Tnp=transposase.
IC50 values were determined from gel shift assays, similar to FIG. 5. […] Each value represents at least two, typically three, independent experiments. Error is represented as the standard deviation (SD) from the fit of the data to the equation used to calculate the IC50.
DNA substrates: The oligonucleotides were purchased HPLC purified from IDT. dsDNA was formed by adding two μmoles of each oligonucleotide to 10 mM Tris-HCl pH 7.9 and 10 mM NaCl. The oligonucleotides were either heated to 96° C. for one minute followed by a decrease in temperature at 0.1° C./sec to 4° C. or heated to 90° C. in a 2 L water bath and cooled to 8° C. overnight. The transferred strand was 5′ end labeled with either rhodamine green for FP or fluorescein for gel shift assays.
The 19 bp DNA sequences used for FP assays were 5° C. […] The 40 bp DNA sequences used for the gel shift assays during assay development were 5° C.
(§1) Transposase and integrase purification: The EK54, MA56 and LP372 hyperactive mutant version of transposase was used for all assays and is referred to as transposase throughout this work. Transposase and integrase proteins were purified as described in Ason, B., and W. S. Reznikoff, J Mol Biol 335:1213-25, 2004 and Taganov, K. D. et al., Journal of Virology 78:5848-55, 2004, both are herein incorporated by reference in their entirety.
FP and gel-shift assays: Reactions were performed as described in Ason, B., and W. S. Reznikoff, J Mol Biol 335:1213-25, 2004, except 800 nM transposase and 160 nM dsDNA were used for complex formation. For FP analysis, 60 μL reactions were analyzed using the FP protocol on a Wallac Victor V plate reader and a 7% native polyacrylamide gel was used in gel shift assays. For compound screening and subsequent analysis, 1 μL of either DMSO or test compound (final concentration […]) was added to the synapsis reactions. Compound screening was carried out using a Beckman Coulter Biomek FX in a 384 well format. Compounds identified as hits were rescreened using gel shift assays under synapsis conditions with a 120 μM compound concentration. IC50 values were obtained by fitting inhibitor titration data (0, 0.01, 0.05, 0.1, 0.5, 2.5, 10, 20, 35, 50, 100, 200, 400, 800 μM) to an exponential decay.
For orientation: A gel shift assay detects complexes by their altered migration in electrophoresis.
Take `COc1cc(C=C2SC(=S)NC2=O)cc(Cl)c1OC(C)C` [Compound 5]: the IC50 was 10 ± 1 µM.

For `COc1cccc(OCCOc2cccc(C=C3SC(=S)NC3=O)c2)c1` [Compound 11], the IC50 amounted to 5.3 ± 0.9 µM.

Consider `O=C(Nc1ccccc1C(=O)O)c1cccc(NC(=O)C(c2ccccc2)c2ccccc2)c1` [Compound 16], for which the IC50 is 46 ± 5 µM.

Consider `O=C(/C=C/c1ccccc1)C1=C(O)C(=O)N(c2ccccc2)C1c1cccc([N+](=O)[O-])c1` (stereo not shown) [Compound 10], for which the half-maximal inhibitory concentration (IC50) amounted to 35 ± 3 µM.

As to `O=C(O)C(Cc1ccccc1)N1C(=O)C(=Cc2ccc(Br)cc2)SC1=S` (stereo not shown) [Compound 18], the IC50 is 10 ± 1 µM.

Turning to `O=C(O)C(Cc1ccccc1)N1C(=O)C(=CC=Cc2ccccc2)SC1=S` (stereo not shown) [Compound 19], the IC50 stood at 16 ± 2 µM.

On to `COc1cccc(C(c2c(O)c3ccccc3oc2=O)c2c(O)c3ccccc3oc2=O)c1` [Compound 12], for which the IC50 was determined as 9.5 ± 0.9 µM.

As to `COc1cc(C=C2SC(=S)NC2=O)ccc1OS(=O)(=O)c1ccccc1[N+](=O)[O-]` [Compound 14], the IC50 is 8.6 ± 0.8 µM.

Consider `CCc1nnc(NS(=O)(=O)c2ccc(NC=CC(=O)c3ccc4ccccc4c3)cc2)s1` [Compound 7], for which the IC50 stood at 4 ± 0.6 µM.

On to `COc1ccc(C(c2c(O)c3ccccc3oc2=O)c2c(O)c3ccccc3oc2=O)cc1CSc1ccccn1` [Compound 2], for which the IC50 was found to be 4.8 ± 0.4 µM.

For the compound `Cc1ccc(C(=O)Nc2ccccc2C(=O)Nc2ccccc2C(=O)O)cc1` [Compound 8], the IC50 was 8.7 ± 1 µM.

Take `COc1ccc(C(c2c(O)c3ccccc3oc2=O)c2c(O)c3ccccc3oc2=O)cc1Cn1nc(C)c([N+](=O)[O-])c1C` [Compound 4]: the IC50 is 4.7 ± 0.4 µM.

With `O=C1C(=C2c3ccccc3C(=O)C2C2c3ccccc3Oc3ccccc32)C(=O)c2ccccc21` (stereo not shown) [Compound 9], the IC50 is 3.4 ± 0.7 µM.

For the compound `O=C(Nc1ccccc1C(=O)O)c1ccc2c(c1)C(=O)N(c1ccccc1-c1ccccc1)C2=O` [Compound 15], the IC50 was determined as 20 ± 2 µM.

As to `O=c1oc2ccccc2c(O)c1C(c1cccc(F)c1)c1c(O)c2ccccc2oc1=O` [Compound 1], the IC50 stood at 8.1 ± 1.2 µM.

On to `O=C(Nc1ccccc1C(=O)O)c1ccc(NC(=O)C(c2ccccc2)c2ccccc2)cc1` [Compound 17], for which the IC50 stood at 9.3 ± 0.9 µM.

Take `O=S(=O)(c1cc(Cl)cc(Cl)c1O)c1cc(Cl)cc(Cl)c1O` [Compound 6]: the concentration for half-maximal inhibition (IC50) was determined as 4 ± 0.3 µM.

`Cc1ccc(C(c2c(O)c3ccccc3oc2=O)c2c(O)c3ccccc3oc2=O)cc1` [Compound 3]: the IC50 worked out at 3.5 ± 0.4 µM.

`CCCOc1ccc(C(=O)Nc2ccc(Br)cc2C(=O)O)cc1` [Compound 20]: the half-inhibitory concentration (IC50) was 20 ± 3 µM.

The target in the next experiment is T3, HIV-1 integrase (Human immunodeficiency virus type 1 group M subtype B, UniProt P04585). Nature of the experiment: HIV-1 integrase assay (3' strand processing, PAGE). The arrangement: made in house. The experiment is classed as biochemical.
Settings: not given
On the procedure:
(§2) HIV-1 integrase assay: HIV-1 integrase activity was measured as described in Daniel, R. et al., AIDS Res Hum Retroviruses 20:135-44, 2004 (incorporated by reference in its entirety), except that 1.0 μL of either DMSO or inhibitor were added to the reactions. Briefly, HIV-1 integrase (1 μM, final concentration) was pre-incubated with various concentrations of inhibitor at 30° C. for 30 min. A 21-base pair ^32P labeled substrate (1×10^6 dpm), representing the U5 end of the viral genome, and MnCl2 (10 mM, final concentration) were subsequently added to the reaction. The reaction proceeded for 15 min. at 37° C. The reactions were subsequently quenched using EDTA (10 mM, final concentration), and the products separated on a 20% denaturing polyacrylamide gel.
For `O=C(C1=C(O)C(=O)N(c2ccccc2)C1c1cccc([N+](=O)[O-])c1)c1ccccc1` (stereo not shown) [compound 10-A], the “inhibition of integrase in vitro (in words)” value is on record as “impedes its efficacy as an integrase inhibitor”.

For a further experiment, the target named is T3, HIV-1 integrase. Nature of the experiment: HIV-1 integrase in vitro activity, 3' strand processing (denaturing PAGE). The experiment is classed as biochemical. The arrangement: HIV-1 integrase (1 μM, final concentration); made in house. The note with it: 1 μM integrase; pre-incubated 30° C. 30 min; 21-base pair 32P substrate, 10 mM MnCl2, 15 min 37° C.; ± SD from fit; at least two, typically three experiments; read-out: HIV-1 integrase (3' strand processing) IC50. The procedure: The degree of 3′ strand processing is measured by the percentage of the signal obtained for the 3′ strand processing product relative to the total signal per lane. IN=integrase.
These values are calculated from data measuring the percentage of the 3′ strand processing product formed, as described in FIG. 6. Assay products are observed using PAGE, as described in the methods section. Each value represents at least two, typically three, independent experiments. Error is represented as the standard deviation (SD) from the fit of the data to the equation used to calculate the IC50.
Increasing concentrations (0.01, 0.1, 1, 10, 20, 30, 50, 75, 100 μM) of each compound were used to determine their ability to block HIV-1 integration in vivo and determine their inherent cytotoxicity, as described in the methods section of example 2 below. Reactions were performed in triplicate. Each compound is further analyzed for inhibition of integrase activity in vitro, as described in FIG. 6. Each value represents three independent experiments. Error is represented as the standard deviation (SD) from the fit of the data to the equation used to calculate the IC50. IN=integrase.
as §1, §2
For `COc1cc(C=C2SC(=S)NC2=O)ccc1OS(=O)(=O)c1ccccc1[N+](=O)[O-]` [Compound 14], the IC50 came to 17 ± 3 µM.

`COc1ccc(C(c2c(O)c3ccccc3oc2=O)c2c(O)c3ccccc3oc2=O)cc1Cn1nc(C)c([N+](=O)[O-])c1C` [Compound 4]: the IC50 was determined as 9 ± 2 µM.

With `O=S(=O)(c1cc(Cl)cc(Cl)c1O)c1cc(Cl)cc(Cl)c1O` [Compound 6], the IC50 turned out to be 32 ± 9 µM.

The experiment is the same for the next values; noted with them: read-out: HIV-1 IN (integrase) in vitro IC50.
With `COc1ccc(N2C(=O)C(O)=C(C(=O)/C=C/c3ccccc3)C2c2ccc(Cl)cc2)cc1` (stereo not shown) [Compound 10-E], the IC50 worked out at 12 ± 3 µM.

`O=C(/C=C/c1ccccc1)C1=C(O)C(=O)N(c2cccc(C(=O)O)c2)C1c1ccc([N+](=O)[O-])cc1` (stereo not shown) [Compound 10-D]: the half-inhibitory concentration (IC50) was 87 ± 9 µM.

`COc1ccc(N2C(=O)C(O)=C(C(=O)/C=C/c3ccccc3)C2c2cccc([N+](=O)[O-])c2)cc1` (stereo not shown) [Compound 10-B]: the IC50 was found to be 22 ± 12 µM.

`Cc1ccccc1N1C(=O)C(O)=C(C(=O)/C=C/c2ccccc2)C1c1ccc(Br)cc1` (stereo not shown) [Compound 10-G]: the IC50 is 11 ± 2 µM.

With `COc1ccc(N2C(=O)C(O)=C(C(=O)/C=C/c3ccccc3)C2c2ccc([N+](=O)[O-])cc2)cc1` (stereo not shown) [Compound 10-C], the half-inhibitory concentration (IC50) came to 46 ± 12 µM.

`O=C(/C=C/c1ccccc1)C1=C(O)C(=O)N(c2cccc(C(F)(F)F)c2)C1c1ccc([N+](=O)[O-])cc1` (stereo not shown) [Compound 10-F]: the IC50 was found to be 11 ± 4 µM.

For the compound `O=C(C1=C(O)C(=O)N(c2ccccc2)C1c1cccc([N+](=O)[O-])c1)c1ccccc1` (stereo not shown) [Compound 10-A], the IC50 worked out at 165 ± 35 µM.

Source of the values: US20090098548A1, “MODULATORS OF ENZYMATIC NUCLEIC ACID ELEMENTS MOBILIZATION” (priority 2004, published 2009).
